From patent US7534456B2, “Agastache rugosa extract and composition containing tilianin isolated and purified from said extract having anti-inflammatory activity and anti-atherogenic activity” (Korea Research Institute of Bioscience and Biotechnology, priority 2001, dated 2009)
Marks after values point to notes of the source that are not given here.

How the values were obtained:
[1] = system: ICAM-1 expression for THP-1 cells; experiment: Inhibitory activity against TNF-α-induced ICAM-1 expression in THP-1 cells; assay type: cell-based, human; details: 30 μM, TNF-α 10 ng/ml
Experimental: The following is the process of experiment on inhibitory activity against ICAM-1 expression for THP-1 cells.
THP-1 cells were cultured in CO2 incubator (5% CO2, 95% relative humidity, 37° C.) using RPMI-1640 broth (RPMI-1640, Gibco BRL 23400-021, 1.62%; 0.2% NaHCO3; 1% antimicrobial agents with penicillin and streptomycin mixed) with 10% fetal bovine serum (Gibco BRL 26140-079, FBS) added to the culture media. Samples for test were melted in DMSO, diluted with phosphate buffered saline solution (PBS) to below 5% and added to reactive solution by 5%, so as to set the concentration of DMSO with samples melted therein not to exceed 0.25% in the final solution. 200 μl of THP-1 cells (2.5×10^5 cells/ml) was divided into each well of 96-well with addition of 10 μl of solution prepared at constant concentration. After culturing it in 37° C. CO2 incubator for 1 hour, TNF-α (final concentration: 10 ng/ml) was added to induce ICAM-1 expression and it was cultured in CO2 incubator for 16 more hours. The reactive solution was made to isolate nonspecific bonding part by adding 25 μl of glutaraldehyde buffer solution (glutaraldehyde 2.08% in PBS) to set cells at well, washing it with PBST (0.005% tween-20 in PBS) and adding 3% skim milk. […] Then, the inhibition ratio of the expression by samples was calculated after measuring absorbance at 490 nm and ICAM-1 expression of THP-1 cells by TNF-α.

[2] = system: atherosclerotic lesion; experiment: Inhibitory activity against atherosclerotic lesion in LDLR−/− mice on high cholesterol diet; assay type: in vivo; details: 1.0% in high cholesterol diet, 8 weeks
Source text: The process of experiment on inhibitory activity of atherosclerotic lesion described in detail is as follows. Step I) Mouse Breeding and Experiment on Administration of the Extract of […] rugosa to the Mouse […] During the experiment, the mice had free access to water and food. Step II) Measurement of Atherosclerotic Lesion Models After 8 weeks of experiment, the blood was gathered through the eyes of all mice. Then, PBS ([…]) was flowed through the heart and the artery of mice for 10 minutes and subsequently paraformaldehyde was flowed through for 5 minutes. […] Six frozen sections (9 μm each), prepared beginning from the area of artery using microtome maintaining low temperature (-20° C.), were stained with Oil red O and counter-stained with Harris hematoxylin. These stained sections were then quantified by computer-assisted morphometry and the average lesion size was calculated for each animal group. In this manner, inhibitory activity against sample group's lesion according to outbreak of control group's lesion was calculated.

Row | Structure (SMILES) | Inhibitory activity of ICAM-1 expression (%) [1] [%] | Lesion size (μm^2) [2] [μm^2] | Inhibitory activity (%) against atherosclerotic lesion ([2]; vs control group)
1 | C[C@@H]1C[C@H]2[C@@H]3CCC4=CC(=O)C=C[C@]4(C)[C@@]3(F)[C@@H](O)C[C@]2(C)[C@@]1(O)C(=O)CO [Dexamethasone, dexamethasone, reference compound] | 40.1 ± 1.7 |  | 
2 | CC[C@H](C)C(=O)O[C@H]1C[C@@H](C)C=C2C=C[C@H](C)[C@H](CC[C@@H]3C[C@@H](O)CC(=O)O3)[C@H]21 [Lovastatin, lovastatin, reference compound] |  | 291442.0 ± 96927.8 | 50.9*** %
